Results reported in patent US20230146455A1, “TREATMENT OF INFLAMMATORY DISEASES WITH PEPTIDES AND PHARMACEUTICAL COMPOSITIONS” (Yuyu Pharma, Inc., priority 2020, published 2023).
Where “and” joins values, the source holds several entries; their conditions need not be identical. Equal entries are not always repeated. Where a SMILES comes first, the peptide text is derived from it. [ ]: non-standard residue; d: D form. Hyp = O=C(O)[C@@H]1C[C@@H](O)CN1

Test system: IL-4
Assay: Example 9 Luminex, LPS hPBMCs: IL-4
Assay type: cell-based, human
Protocol: Treatment Human PBMCs were pretreated with YY-101, YDE-011 and YDE-043 or reference compound; Xiidra® at various concentration (ranging from 1 nM to 100 uM) for 2 h before stimulation. An equal volume of 0.5% DMSO was used as a vehicle control. Then, the cells were treated with LPS at 5 ug/ml. The supernatants from treated cells were harvested at 24 h and placed in a 96 well for Luminex cytokine & chemokine profiling using a Luminex 200 multiplex assay (Luminex; R&D system, USA).
The main study arm with triplicate wells per group in a 24-well plate: • 1. Blank • 2. PBMC: 0.5% DMSO • 3. PBMC+LPS (5 ug/ml) • 4. PBMC+YY-101 100 uM • 5. PBMC+YY-101 10 uM • 6. PBMC+YY-101 1 uM • 7. PBMC+YY-101 0.1 uM • 8. PBMC+YY-101 0.01 uM • 9. PBMC+LPS (5 ug/ml)+Xiidra®100 uM • 10. PBMC+LPS (5 ug/ml)+Xiidra® 10 uM • 11. PBMC+LPS (5 ug/ml)+Xiidra® 1 uM • 12. PBMC+LPS (5 ug/ml)+Xiidra®0.1 uM • 13. PBMC+LPS (5 ug/ml)+Xiidra®0.01 uM • 14. PBMC+LPS (5 ug/ml)+Xiidra®0.001 uM • 15. PBMC+LPS (5 ug/ml)+YY-101 100 uM • 16. PBMC+LPS (5 ug/ml)+YY-101 10 uM • 17. PBMC+LPS (5 ug/ml)+YY-101 1 uM • 18. PBMC+LPS (5 ug/ml)+YY-101 0.1 uM • 19. PBMC+LPS (5 ug/ml)+YY-101 0.01 uM • 20. PBMC+LPS (5 ug/ml)+YY-101 0.001 uM • 21. PBMC+LPS (5 ug/ml)+YDE-011 100 uM • 22. PBMC+LPS (5 ug/ml)+YDE-011 10 uM • 23. PBMC+LPS (5 ug/ml)+YDE-011 1 uM • 24. PBMC+LPS (5 ug/ml)+YDE-011 0.1 uM • 25. PBMC+LPS (5 ug/ml)+YDE-011 0.01 uM • 26. PBMC+LPS (5 ug/ml)+YDE-011 0.001 uM • 27. PBMC+LPS (5 ug/ml)+YDE-043 100 uM • 28. PBMC+LPS (5 ug/ml)+YDE-043 10 uM • 29. PBMC+LPS (5 ug/ml)+YDE-043 1 uM • 30. PBMC+LPS (5 ug/ml)+YDE-043 0.1 uM • 31. PBMC+LPS (5 ug/ml)+YDE-043 0.01 uM • 32. PBMC+LPS (5 ug/ml)+YDE-043 0.001 uM
Multiplex assay was used to measure 30 cytokines and chemokines. The 1:2, 1:10 and 1:200 diluted cell supernatant and serial dilution of the standard were dispensed into a 96 well plate at 50 ul/well. Then, the pre-mixed cocktail of antibody-coated magnetic beads was dispensed at 50 ul/well and incubated at room temperature for 2 h in a horizontal orbital microplate shaker at 800±500 rpm. The beads were washed using a magnetic device to prevent loss. The biotin-antibody was dispensed in 50 ul of each well and incubated at room temperature for 1 h in a shaker at 800±500 rpm. After washing, streptavidin-PE was added at 50 ul/well and incubated at room temperature for 30 min in a shaker under the same conditions. Finally, after washing, wash buffer (100 ul/well) was added to the plate and incubated in a shaker for 2 min. The Luminex™ 200 setting were set according to the manufacturer's protocol. The data was calculated with a standard five-parameter logistic nonlinear regression analysis of the data (xPonent software 4.2, USA). The levels of cytokine/chemokine are normalized to the live cell counts (1×10^5 cells/mL) and presented as concentrations per mL (pg/mL or ng/mL).

[1] = PBMC + LPS(5 ug/ml) + test article 0.001 uM, Mean
[2] = PBMC + LPS(5 ug/ml) + test article 0.001 uM, single replicates
[3] = PBMC + LPS(5 ug/ml) + test article 0.01 uM, Mean
[4] = PBMC + LPS(5 ug/ml) + test article 0.01 uM, single replicates
[5] = PBMC + LPS(5 ug/ml) + test article 0.1 uM, Mean
[6] = PBMC + LPS(5 ug/ml) + test article 0.1 uM, single replicates
[7] = PBMC + LPS(5 ug/ml) + test article 1 uM, Mean
[8] = PBMC + LPS(5 ug/ml) + test article 1 uM, single replicates
[9] = PBMC + LPS(5 ug/ml) + test article 10 uM, Mean
[10] = PBMC + LPS(5 ug/ml) + test article 10 uM, single replicates
[11] = PBMC + LPS(5 ug/ml) + test article 100 uM, Mean
[12] = PBMC + LPS(5 ug/ml) + test article 100 uM, single replicates

CC(C)C[C@H](NC(=O)[C@H](CCC(N)=O)NC(=O)CNC(=O)[C@@H]1C[C@@H](O)CN1)C(=O)NCC(=O)O [YDE-043] (H-[Hyp]GQLG-OH; N-terminus and C-terminus assumed)
Concentration, Bead name: IL-4 [1]: 26.0 pg/mL
MFI, Bead name: IL-4 [1]: 1.0
conc/live cell, Bead name: IL-4 [1]: 5.2 pg/10^5
Concentration, Bead name: IL-4 [2]: 26.4 pg/mL and 33.2 pg/mL and 18.4 pg/mL
MFI, Bead name: IL-4 [2]: 1.0 and 2.0 and 0.0
conc/live cell, Bead name: IL-4 [2]: 6.0 pg/10^5 and 5.5 pg/10^5 and 4.0 pg/10^5
Concentration, Bead name: IL-4 [3]: 11.3 pg/mL
MFI, Bead name: IL-4 [3]: −0.7
conc/live cell, Bead name: IL-4 [3]: 2.2 pg/10^5
Concentration, Bead name: IL-4 [4]: 7.7 pg/ml (2×) and 18.4 pg/ml
MFI, Bead name: IL-4 [4]: −1.0 (2×) and 0.0
conc/live cell, Bead name: IL-4 [4]: 1.7 pg/10^5 and 1.2 pg/10^5 and 3.7 pg/10^5
Concentration, Bead name: IL-4 [5]: 17.5 pg/mL
MFI, Bead name: IL-4 [5]: 0.0
conc/live cell, Bead name: IL-4 [5]: 3.3 pg/10^5
Concentration, Bead name: IL-4 [6]: 26.4 pg/mL and 18.4 pg/mL and 7.7 pg/mL
MFI, Bead name: IL-4 [6]: 1.0 and 0.0 and −1.0
conc/live cell, Bead name: IL-4 [6]: 5.3 pg/10^5 and 3.3 pg/10^5 and 1.4 pg/10^5
Concentration, Bead name: IL-4 [7]: 26.4 pg/mL
MFI, Bead name: IL-4 [7]: 0.2
conc/live cell, Bead name: IL-4 [7]: 3.5 pg/10^5
Concentration, Bead name: IL-4 [8]: 26.4 pg/mL
MFI, Bead name: IL-4 [8]: −1.5 and 1.0 (2×)
conc/live cell, Bead name: IL-4 [8]: 0.0 pg/10^5 and 5.5 pg/10^5 and 5.0 pg/10^5
Concentration, Bead name: IL-4 [9]: 14.8 pg/mL
MFI, Bead name: IL-4 [9]: −0.3
conc/live cell, Bead name: IL-4 [9]: 2.7 pg/10^5
Concentration, Bead name: IL-4 [10]: 18.4 pg/ml (2×) and 7.7 pg/ml
MFI, Bead name: IL-4 [10]: 0.0 (2×) and −1.0
conc/live cell, Bead name: IL-4 [10]: 3.5 pg/10^5 and 1.4 pg/10^5 and 3.3 pg/10^5
Concentration, Bead name: IL-4 [11]: 7.7 pg/mL
MFI, Bead name: IL-4 [11]: −1.0
conc/live cell, Bead name: IL-4 [11]: 1.2 pg/10^5
Concentration, Bead name: IL-4 [12]: 7.7 pg/mL
MFI, Bead name: IL-4 [12]: −1.0
conc/live cell, Bead name: IL-4 [12]: 1.2 pg/10^5
